# Test results published in US20220280469A1, “PHARMACEUTICAL COMPOUND AND PREPARATION METHOD THEREFOR AND USE THEREOF” (priority 2019, published 2022).
# Experiments:
# [1] = Pharmacokinetics and tumor targeting of Pt in tumor tissue of pancreatic cancer orthotopic transplantation model mice; type: in vivo, mouse; details: 8 mg/kg
# Method: Mouse pancreatic cancer cells transfected with luciferase reporter genes were used to prepare mouse pancreatic cancer orthotopic transplantation models. The tumor volume of the mice were determined by injecting […] into tail veins, and the mice with similar tumor volume were selected for evaluation of systemic PK and tumor-targeting property. […] Pharmacokinetic parameters were calculated using PK Solver 2.0.
# [2] = system: PANC-1 subcutaneous transplantation tumor; test: Anti-tumor effect in PANC-1 subcutaneous transplantation tumor model; type: in vivo, BALB/c Nude mouse; details: 4 mg/kg cisplatin (effective dose), once a week, 4 times
# Method: The human pancreatic cancer cell strain PANC-1 was cultured in a DMEM high-glucose medium containing 10% FBS. Before being used, the cells were digested with pancreatin and centrifuged for 3 min at 800 r·min^−1 to remove the supernatant. The cells were resuspended in a serum-free DMEM medium, matrigel was added at a ratio of 1:1, and the number of the cells was adjusted to 5×10^6/mL. The cell suspension was inoculated subcutaneously to the right thigh at 100 μL/mouse. […] The tumor-bearing mice were randomly divided into 5 groups with 6 mice in each. […] The drugs were administered via tail vein injection. The administration was performed once a week, 4 times in total. The long (l) and short (r) diameters of the tumors were measured with a vernier caliper every other day to calculate tumor volume. All mice were sacrificed on day 11 after the administration cycle was completed, and they were dissected to get the tumors, which were then weighed. The tumor volume calculation formula was as follows: V=(l×r^2)/2.
# [3] = system: MIA PaCa-2 pancreas orthotopic transplantation tumor; test: Kaplan-Meier survival in MIA PaCa-2 pancreas orthotopic transplantation model; details: once every 7 days, three times
# Method: Pancreas of BALB/c nude mice was transplanted orthotopically with Mia paca-2 cells (reporter gene: luciferase) to prepare pancreatic cancer transplantation in situ models, and then the mice were randomly divided into 4 groups with 6 mice in each, and administered with drugs 10 days after the models were established. […] The drugs were administered once every 7 days, three times in total. The mice were weighed every other day, and the survival state of the mice was recorded. Kaplan-Meier survival curves were drawn to examine the influence of different drug treatments on the survival state of the mice.
structure (smiles),measurement,setting,value
"N.N.[Cl][Pt][Cl] [cisplatin, cis-diamminedichloroplatinum]",ID% (drug amount at a tumor site x 100%/injected drug amount),[1],less than 5%
same,body weight of the mice during the administration process,[2],remarkably decreased
same,"inhibition of PANC-1 subcutaneous transplantation tumor (tumor volume, tumor weight)",[2]; tail vein,no significant inhibition effect
same,body weight of the mice in the whole treatment process,[3],significantly reduced
